The supplement of paper PMC4862054
Where “and” joins values, the source holds several entries; their conditions need not be identical. Equal entries are not always repeated.

What was measured:
[1] = system: DU-4475; details: 72 h
Procedure, shortened: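 For viability, cells received 2.5 µl CellTiter-Blue for 2 h at 37 °C and fluorescence was read at 560/590 nm. Before this, breast cancer cell lines in 20 µl suspension had been incubated for 72 h on 384-well plates pre-loaded with compound dissolved in 5 µl medium. EC50 was obtained from a percent-inhibition dose-response fit censored at the highest concentration, after normalisation of each plate to vehicle and a positive kill control; rows with a zero drug sensitivity score were discarded.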

[2] = system: HCC1143; assay: normalised viability (% of control), CellTiter-Blue; higher = more viable cells (about 100 = DMSO control); details: incubation time: 72 h
Procedure, shortened: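 Vehicle (100) and a positive kill control (0) anchored the normalisation of each plate, and Z'-factor was used for quality control. Breast cancer cell lines in 20 µl suspension were incubated 72 h over compound in 5 µl medium in 384-well plates, followed by CellTiter-Blue at 560/590 nm. The value is normalised viability at a single listed concentration of the series.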

[3] = system: CAL-85-1; details: 72 h
Procedure: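 Drug sensitivity and resistance testing (DSRT) of breast cancer cell lines in 384-well plates, 5 concentrations in 10-fold dilutions over a compound-specific 10,000-fold range. After 72 h, cytotoxicity was read by CellTox Green fluorescence and viability by CellTiter-Glo luminescence (multiplexed), normalised to DMSO and benzethonium chloride controls. EC50 is the inflection point of the fitted dose-response curve (bottom asymptote free, so it can be relative for partial curves) and is censored at the highest tested concentration. Rows with DSS 0 (no meaningful response) were excluded.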

| Structure (SMILES) | EC50, CellTiter-Blue viability [1] [nM] | normalised viability ([2]; 100 nM) | EC50, CellTox Green [3] [nM] | also measured |
| --- | --- | --- | --- | --- |
| COc1ccc(-c2cc3c(C)nc(N)nc3n([C@H]3CC[C@H](OCCO)CC3)c2=O)cn1 | 610 | 92.8% | 4090 |  |
| Cc1cccc(-c2nn3c(c2-c2ccnc4ccc(C(N)=O)cc24)CCC3)n1 |  |  |  | normalised viability ([2]; 10 nM): 91% |
| Cn1cc(CNCC2CCN(c3ncc(C(=O)NO)cn3)CC2)c2ccccc21 | 14.3 |  |  | normalised viability ([2]; 10 nM): 64.8% |
| O=C(NC[C@H](O)CO)c1ccncc1Nc1ccc(I)cc1F | 11.7 | 66% |  |  |
| Nc1nc(=O)c2c([nH]1)NCC(CNc1ccc(C(=O)N[C@@H](CCC(=O)O)C(=O)O)cc1)N2C=O (mixture of isomers) [Folinic acid] |  |  |  | normalised viability ([2]; 9.9 nM): 86.1% |
| CC/C(=C(\c1ccc(O)cc1)c1ccc(OCCN(C)C)cc1)c1ccccc1 [4-hydroxytamoxifen] |  |  | 7760 |  |
| O=C(Nc1c[nH]nc1-c1nc2ccc(CN3CCOCC3)cc2[nH]1)NC1CC1 [AT9283] | 109 | 72.8% |  |  |
| COc1cc(CCc2cc(NC(=O)c3ccc(N4CC(C)NC(C)C4)cc3)n[nH]2)cc(OC)c1 (stereo unspecified) [AZD4547] | 536 |  |  | normalised viability ([2]; 10 nM): 86.9% |
| CC(=O)OC[C@H]1O[C@@H]([S-])[C@H](OC(C)=O)[C@@H](OC(C)=O)[C@@H]1OC(C)=O.CCP(CC)CC.[Au+] [Auranofin] |  |  | 917 |  |
| CCC/C=C/C=C/C(=O)O[C@H]1/C(=C/C(=O)OC)C[C@H]2C[C@H]([C@@H](C)O)OC(=O)C[C@H](O)C[C@@H]3C[C@H](OC(C)=O)C(C)(C)[C@](O)(C[C@@H]4C/C(=C/C(=O)OC)C[C@H](/C=C/C(C)(C)[C@]1(O)O2)O4)O3 [Bryostatin 1] |  |  |  | normalised viability ([2]; 1 nM): 81.2% |
| CO[C@@H](C(=O)N1Cc2[nH]nc(NC(=O)c3ccc(N4CCN(C)CC4)cc3)c2C1)c1ccccc1 [Danusertib] | 538 | 87.4% |  |  |
| Cc1nc(Nc2ncc(C(=O)Nc3c(C)cccc3Cl)s2)cc(N2CCN(CCO)CC2)n1 [Dasatinib] |  |  | 108 |  |
| O=S(=O)(c1cccc2cnccc12)N1CCCNCC1 [Fasudil] |  | 87.2% |  |  |
| CS(=O)(=O)N1CCN(Cc2cc3nc(-c4cccc5[nH]ncc45)nc(N4CCOCC4)c3s2)CC1 [GDC-0941] | 5650 | 81.9% |  |  |
| Cc1c(CN2CCN(C(=O)[C@H](C)O)CC2)sc2c(N3CCOCC3)nc(-c3cnc(N)nc3)nc12 [GDC-0980] | 734 | 71.5% | 3200 |  |
| Nc1cccc2c1CN(C1CCC(=O)NC1=O)C2=O (stereo unspecified) [Lenalidomide] |  | 81.8% and 68% |  |  |
| C[C@]12O[C@H](C[C@]1(O)CO)n1c3ccccc3c3c4c(c5c6ccccc6n2c5c31)CNC4=O [Lestaurtinib] | 186 |  | 356 | normalised viability ([2]; 10 nM): 113% |
| O=C1c2c(O)ccc(O)c2C(=O)c2c(NCCNCCO)ccc(NCCNCCO)c21 [Mitoxantrone] | 8.91 |  |  | normalised viability ([2]; 10 nM): 66.9% |
| Nc1ccccc1NC(=O)c1ccc(CNc2nccc(-c3cccnc3)n2)cc1 [Mocetinostat] | 757 | 81.5% | 2380 |  |
| Cc1ccc(Nc2nccc(N(C)c3ccc4c(C)n(C)nc4c3)n2)cc1S(N)(=O)=O [Pazopanib] |  | 85.8% | > 10000 |  |
| CS(=O)(=O)N1CCN(Cc2cc3nc(-c4cccc5[nH]ncc45)nc(N4CCOCC4)c3s2)CC1 [Pictilisib] |  |  | 2150 |  |
| O=C(NC[C@H](O)CO)c1ccncc1Nc1ccc(I)cc1F [Pimasertib] |  |  | 1340 |  |
| O=C(CCBr)N1CCN(C(=O)CCBr)CC1 [Pipobroman] |  | 87.8% |  |  |
| c1cc(CN2CCCNCCNCCCNCC2)ccc1CN1CCCNCCNCCCNCC1 [Plerixafor] |  |  |  | normalised viability ([2]; 25 nM): 83.4% |
| C[C@]12C=CC(=O)C=C1CC[C@@H]1[C@@H]2[C@@H](O)C[C@@]2(C)[C@H]1CC[C@]2(O)C(=O)CO [Prednisolone] |  | 97.8% |  |  |
| Cn1cc(CNCC2CCN(c3ncc(C(=O)NO)cn3)CC2)c2ccccc21 [Quisinostat] |  |  | 18.5 |  |
| CNC(=O)c1cc(Oc2ccc(NC(=O)Nc3ccc(Cl)c(C(F)(F)F)c3)cc2)ccn1 [Sorafenib] |  |  |  | normalised viability ([2]; 10 nM): 101% and 80.6% |
| CC[C@@]1(O)C(=O)OCc2c1cc1n(c2=O)Cc2cc3c(CN(C)C)c(O)ccc3nc2-1 [Topotecan] | 118 |  | 913 | normalised viability ([2]; 10 nM): 79.7% |
